Source: PubChem BioAssay AID248 (DTP/NCI, 2004)
Values joined by “and” are separate entries in the source; they are usually repeats but may differ in a detail not shown here. Equal values may be shown once. Inconclusive results and toxic doses are left out. Rule as the data show it: active = T/C of 150% or more; inactive = T/C below 125%. Peptide text beside a SMILES is read from it. * marks the point of attachment. Trt = c1ccc(C(c2ccccc2)(c2ccccc2)*)cc1; OtBu = CC(C)(C)O*

System: L1210 leukemia ip in BDF1 mice, survival T/C
Experiment: NCI In Vivo Anticancer Drug Screen. Data for tumor model L1210 Leukemia (intraperitoneal) in B6D2F1 (BDF1) mice
Conditions: endpoint: mean survival time, higher = longer survival
How it was run: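 Transplanted-tumor mice were given test agent; controls received vehicle only. Survival readings from the two groups were divided (treated over control).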

[1] = dose: 50.0 mg/kg/injection, schedule: Q01DX001 (ip), vehicle: carboxymethylcellulose (CMC)
[2] = dose: 400.0 mg/kg/injection, schedule: Q01DX001 (ip), vehicle: carboxymethylcellulose (CMC)
[3] = dose: 400.0 mg/kg/injection, schedule: Q01DX001 (ip), vehicle: saline
[4] = dose: 100.0 mg/kg/injection, schedule: Q01DX009 (ip), vehicle: Klucel (hydroxypropylcellulose) (HPC)
[5] = dose: 100.0 mg/kg/injection, schedule: Q04DX003 (ip), vehicle: Klucel (hydroxypropylcellulose) (HPC)
[6] = dose: 200.0 mg/kg/injection, schedule: Q01DX009 (ip), vehicle: Klucel (hydroxypropylcellulose) (HPC)
[7] = dose: 200.0 mg/kg/injection, schedule: Q04DX003 (ip), vehicle: Klucel (hydroxypropylcellulose) (HPC)
[8] = dose: 400.0 mg/kg/injection, schedule: Q01DX009 (ip), vehicle: Klucel (hydroxypropylcellulose) (HPC)
[9] = dose: 400.0 mg/kg/injection, schedule: Q04DX003 (ip), vehicle: Klucel (hydroxypropylcellulose) (HPC)
[10] = dose: 100.0 mg/kg/injection, schedule: Q04DX002 (ip), vehicle: Klucel (hydroxypropylcellulose) (HPC)
[11] = dose: 100.0 mg/kg/injection, schedule: Q04DX003 (ip), vehicle: saline with Tween-80
[12] = dose: 200.0 mg/kg/injection, schedule: Q04DX003 (ip), vehicle: saline with Tween-80
[13] = dose: 400.0 mg/kg/injection, schedule: Q04DX003 (ip), vehicle: saline with Tween-80
[14] = dose: 100.0 mg/kg/injection, schedule: Q01DX001 (ip), vehicle: other
[15] = dose: 200.0 mg/kg/injection, schedule: Q01DX001 (ip), vehicle: other
[16] = dose: 400.0 mg/kg/injection, schedule: Q01DX001 (ip), vehicle: other
[17] = dose: 50.0 mg/kg/injection, schedule: Q04DX002 (ip), vehicle: saline
[18] = dose: 100.0 mg/kg/injection, schedule: Q04DX002 (ip), vehicle: saline
[19] = dose: 100.0 mg/kg/injection, schedule: Q01DX001 (ip), vehicle: saline with Tween-80
[20] = dose: 200.0 mg/kg/injection, schedule: Q01DX001 (ip), vehicle: saline with Tween-80
[21] = dose: 400.0 mg/kg/injection, schedule: Q01DX001 (ip), vehicle: saline with Tween-80
[22] = dose: 100.0 mg/kg/injection, schedule: Q01DX009 (ip), vehicle: saline with Tween-80
[23] = dose: 200.0 mg/kg/injection, schedule: Q01DX009 (ip), vehicle: saline with Tween-80
[24] = dose: 400.0 mg/kg/injection, schedule: Q01DX009 (ip), vehicle: saline with Tween-80
[25] = dose: 200.0 mg/kg/injection, schedule: Q04DX002 (ip), vehicle: saline with Tween-80
[26] = dose: 400.0 mg/kg/injection, schedule: Q04DX002 (ip), vehicle: saline with Tween-80
[27] = dose: 100.0 mg/kg/injection, schedule: Q04DX002 (ip), vehicle: saline with Tween-80

Measured: T/C

CC(C)O[Si](C)(C)CCl
inactive: [1] 98 % of control | dose: 100.0 mg/kg/injection, schedule: Q01DX001 (ip), vehicle: carboxymethylcellulose (CMC) 86 % of control | dose: 200.0 mg/kg/injection, schedule: Q01DX001 (ip), vehicle: carboxymethylcellulose (CMC) 90 % of control | [2] 92 % of control

[N-]=[N+]=Nc1ccc(S(N)(=O)=O)cc1
inactive: dose: 100.0 mg/kg/injection, schedule: Q01DX001 (ip), vehicle: saline 99 % of control | dose: 200.0 mg/kg/injection, schedule: Q01DX001 (ip), vehicle: saline 94 % of control | [3] 93 % of control

CCCC1(C)COB(c2ccc(C)cc2)OC1
inactive: dose: 25.0 mg/kg/injection, schedule: Q01DX009 (ip), vehicle: Klucel (hydroxypropylcellulose) (HPC) 102 % of control | dose: 50.0 mg/kg/injection, schedule: Q01DX009 (ip), vehicle: Klucel (hydroxypropylcellulose) (HPC) 105 % of control | dose: 50.0 mg/kg/injection, schedule: Q04DX003 (ip), vehicle: Klucel (hydroxypropylcellulose) (HPC) 92 % of control | [4] 114 % of control | [5] 101 % of control | [6] 122 % of control | [7] 92 % of control | [8] 88 % of control | [9] 95 % of control

CN(C)CCCNc1nc(-c2cc(C(F)(F)F)cc(C(F)(F)F)c2)nc(C(Cl)(Cl)Cl)n1
inactive: [10] 100 % of control | dose: 200.0 mg/kg/injection, schedule: Q04DX002 (ip), vehicle: Klucel (hydroxypropylcellulose) (HPC) 92 % of control | dose: 400.0 mg/kg/injection, schedule: Q04DX002 (ip), vehicle: Klucel (hydroxypropylcellulose) (HPC) 106 % of control

CC(C)(C(O)c1ccccc1)[N+](=O)[O-] (stereo unspecified)
inactive: [11] 101 % of control | [12] 97 % of control | [13] 101 % of control

O=Cc1cc([N+](=O)[O-])ccc1O
inactive: [14] 101 % of control | [15] 97 % of control | [16] 103 % of control

Cc1ccc(N=Nc2c(C)nn(C(N)=S)c2-c2ccccc2)cc1
inactive: dose: 75.0 mg/kg/injection, schedule: Q01DX001 (ip), vehicle: saline 94 % of control | dose: 150.0 mg/kg/injection, schedule: Q01DX001 (ip), vehicle: saline 90 % of control

CC1NCCNCCNCCNC(C)c2cccc1n2 (stereo unspecified)
inactive: dose: 25.0 mg/kg/injection, schedule: Q04DX002 (ip), vehicle: saline 90 % of control | [17] 107 % of control | [18] 89 % of control

C=COCCCCCCCCCCCCCCCCCC
inactive: [14] 95 % of control | [15] 95 % of control | [16] 96 % of control

CCCc1c(OCC)c(OC)c2c3c(c(-c4c(C)cc5c(CCC)c(OCC)c(OC)c6c5c4OC6OC)c(C)cc13)OC2OC (stereo unspecified)
inactive: [4] 94 % of control | [6] 98 % of control | [8] 98 % of control

C=CCCCCCCCCC(=O)NN1CCOCC1
inactive: [11] 98 % of control | [12] 92 % of control | [13] 92 % of control

ClC1(Cl)C2CC(C3C4C=CC(C4)C32)C1(Cl)Cl (stereo unspecified)
inactive: [1] 88 % of control | [2] 101 % of control

COc1ccc(/C=C2\NC(=O)NC2=O)cc1Br
inactive: [4] 93 % of control | [6] 96 % of control | [8] 91 % of control

CC(C)N(C(=O)Nc1ccccc1Cl)c1ccccc1
inactive: [4] 96 % of control | [5] 92 % of control | [6] 92 % of control | [7] 100 % of control | [8] 97 % of control | [9] 92 % of control

C=C(C)CNC(=O)Oc1cccc(NC(=O)OC)c1
inactive: [19] 97 % of control | [20] 95 % of control | [21] 92 % of control

O=C(Nc1ccc(NC(=O)Nc2cc(C(=O)Nc3ccc(C4=NCCN4)cc3)ccc2C(=O)Nc2ccc(C3=NCCN3)cc2)cc1)Nc1cc(C(=O)Nc2ccc(C3=NCCN3)cc2)ccc1C(=O)Nc1ccc(C2=NCCN2)cc1
inactive: dose: 100.0 mg/kg/injection, schedule: Q01DX Z (oral), vehicle: saline 93 % of control | dose: 120.0 mg/kg/injection, schedule: Q01DX Z (ip), vehicle: saline 120 % of control | dose: 200.0 mg/kg/injection, schedule: Q01DX Z (oral), vehicle: saline 98 % of control | dose: 400.0 mg/kg/injection, schedule: Q01DX Z (oral), vehicle: saline 101 % of control

O=C(CCCl)NC(Cc1ccccc1)c1ccccc1 (stereo unspecified)
inactive: [4] 102 % of control | [5] 96 % of control | [6] 92 % of control | [7] 98 % of control | [8] 92 % of control | [9] 95 % of control

Cc1ccc(S(=O)(=O)Nc2cccc3c(NS(=O)(=O)c4ccc(C)cc4)cccc23)cc1
inactive: [22] 96 % of control | [23] 94 % of control | [24] 100 % of control

CCOC(=O)C1C(=O)C=C(c2ccccc2)CC1c1ccccc1 (stereo unspecified)
inactive: [25] 90 % of control | [26] 97 % of control

N#CCN(CC#N)S(=O)(=O)c1ccccc1
inactive: [11] 96 % of control | [12] 94 % of control | [13] 101 % of control

O=[N+]([O-])c1cc(Br)cc(Br)c1O
inactive: dose: 25.0 mg/kg/injection, schedule: Q04DX002 (ip), vehicle: Klucel (hydroxypropylcellulose) (HPC) 109 % of control | dose: 50.0 mg/kg/injection, schedule: Q04DX002 (ip), vehicle: Klucel (hydroxypropylcellulose) (HPC) 98 % of control | [10] 98 % of control and 91 % of control

CC(C)(C)OC(=O)CNC(=O)C(Cc1ccccc1)NC(=O)C(N)CSC(c1ccccc1)(c1ccccc1)c1ccccc1 (stereo not drawn) (H-Cys(Trt)-Phe-Gly-OtBu; configuration not given here)
inactive: dose: 264.0 mg/kg/injection, schedule: Q01DX001 (ip), vehicle: carboxymethylcellulose (CMC) 104 % of control | dose: 264.0 mg/kg/injection, schedule: Q01DX001 (ip), vehicle: saline 110 % of control | [2] 107 % of control | [3] 115 % of control

C[Si](C)(C)Cc1ccc(Cl)cc1
inactive: dose: 111.0 mg/kg/injection, schedule: Q01DX Z (ip), vehicle: saline 104 % of control | dose: 166.0 mg/kg/injection, schedule: Q01DX Z (ip), vehicle: saline 91 % of control | dose: 250.0 mg/kg/injection, schedule: Q01DX Z (ip), vehicle: saline 98 % of control

O=C1CCCCC/C1=C1\C(=O)Nc2ccc(Br)cc21
inactive: [22] 107 % of control | [27] 105 % of control | [23] 100 % of control | [25] 105 % of control | [24] 93 % of control | [26] 97 % of control

Cc1c2oc3c(C)ccc(C(=O)NCCN4CCOCC4)c3nc-2c(C(=O)NCCN2CCOCC2)c(N)c1=O
inactive: [27] 98 % of control | [25] 92 % of control

CC1=CC(=O)C=CC1(C)C(Cl)Cl (stereo unspecified)
inactive: [11] 107 % of control | [12] 100 % of control | [13] 97 % of control

CCOC(=O)Nc1ccc(NC(=O)OCC)cc1
inactive: [4] 89 % of control | [5] 96 % of control | [6] 89 % of control | [7] 93 % of control | [9] 111 % of control

CC(=O)NC1C(NC(=O)CC(NC(=O)OCc2ccccc2)C(=O)O)OC(COC(C)=O)C(OC(C)=O)C1OC(C)=O (stereo unspecified)
inactive: [17] 91 % of control | [18] 94 % of control | dose: 200.0 mg/kg/injection, schedule: Q04DX002 (ip), vehicle: saline 100 % of control

CCOc1cc(S(N)(=O)=O)ccc1Cl
inactive: [19] 89 % of control | [20] 93 % of control | [21] 96 % of control

CCCNC(=S)NC
inactive: [5] 90 % of control | [7] 95 % of control | [9] 109 % of control
